According to PubChem BioAssay (NCI):
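Abbreviation: GI50, concentration required for 50% inhibition of growth. TGI is the concentration that stops growth completely.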

Assays:
Test in all cases: NCI tumour cell line growth inhibition, 384-well format
SW-620 colon = tested on: SW-620 colon
NCI-H460 NSCLC = tested on: NCI-H460 NSCLC
SK-OV-3 ovarian = tested on: SK-OV-3 ovarian
MDA-MB-231 breast = tested on: MDA-MB-231 breast
SR leukemia = tested on: SR leukemia
MOLT-4 leukemia = tested on: MOLT-4 leukemia
MDA-MB-468 breast = tested on: MDA-MB-468 breast
SK-MEL-2 melanoma = tested on: SK-MEL-2 melanoma
TK-10 renal = tested on: TK-10 renal
MDA-MB-435 melanoma = tested on: MDA-MB-435 melanoma
RXF 393 renal = tested on: RXF 393 renal
UACC-257 melanoma = tested on: UACC-257 melanoma
NCI-H23 lung = tested on: NCI-H23 lung
BT-549 breast = tested on: BT-549 breast
K-562 leukemia = tested on: K-562 leukemia
CAKI-1 renal = tested on: CAKI-1 renal
UO-31 renal = tested on: UO-31 renal
CCRF-CEM leukemia = tested on: CCRF-CEM leukemia
DU-145 prostate = tested on: DU-145 prostate
UACC-62 melanoma = tested on: UACC-62 melanoma
NCI-H522 lung = tested on: NCI-H522 lung
HCT-15 colon = tested on: HCT-15 colon
OVCAR-3 ovarian = tested on: OVCAR-3 ovarian
HOP-62 NSCLC = tested on: HOP-62 NSCLC
OVCAR-4 ovarian = tested on: OVCAR-4 ovarian
ACHN renal = tested on: ACHN renal
NCI/ADR-RES ovarian = tested on: NCI/ADR-RES ovarian
NCI-H322M lung = tested on: NCI-H322M lung

For `CN(C)C/C=C/C(=O)Nc1ccc(C(=O)Nc2cccc(Nc3ncc(Cl)c(-c4c[nH]c5ccccc45)n3)c2)cc1`, the TGI (SW-620 colon) was 42 nM, the GI50 (NCI-H460 NSCLC) was 17.3 nM and the TGI (NCI-H460 NSCLC) was 37.2 nM. The GI50 (SK-OV-3 ovarian) was 11.4 nM, the TGI (SK-OV-3 ovarian) was 45.9 nM and the GI50 (MDA-MB-231 breast) was under 10 nM. For the same compound, the TGI (MDA-MB-231 breast) was 44.8 nM, the GI50 (SR leukemia) was under 10 nM and the TGI (SR leukemia) was under 10 nM. It also gave a GI50 (MOLT-4 leukemia) of under 10 nM, a TGI (MOLT-4 leukemia) of 12.4 nM and a GI50 (MDA-MB-468 breast) of under 10 nM. The TGI (MDA-MB-468 breast) was 14.4 nM, the GI50 (SK-MEL-2 melanoma) was under 10 nM and the TGI (SK-MEL-2 melanoma) was 13.3 nM. For the same compound, the GI50 (TK-10 renal) was 21.8 nM, the TGI (TK-10 renal) was 55.9 nM and the GI50 (MDA-MB-435 melanoma) was 13.3 nM. The TGI (MDA-MB-435 melanoma) was 35.4 nM, the GI50 (RXF 393 renal) was under 10 nM and the TGI (RXF 393 renal) was under 10 nM. The GI50 (UACC-257 melanoma) was under 10 nM, the TGI (UACC-257 melanoma) was 21.3 nM and the GI50 (NCI-H23 lung) was 10.6 nM. For the same compound, the TGI (NCI-H23 lung) was 25.4 nM, the GI50 (BT-549 breast) was under 10 nM and the TGI (BT-549 breast) was 13.7 nM. For the same compound, the GI50 (K-562 leukemia) was under 10 nM, the TGI (K-562 leukemia) was 103 nM and the GI50 (CAKI-1 renal) was 14.2 nM. The TGI (CAKI-1 renal) was 46.9 nM, the GI50 (UO-31 renal) was 105 nM and the TGI (UO-31 renal) was 372 nM. For the same compound, the GI50 (CCRF-CEM leukemia) was under 10 nM, the TGI (CCRF-CEM leukemia) was under 10 nM and the GI50 (DU-145 prostate) was 16.2 nM. It also gave a TGI (DU-145 prostate) of 60.2 nM, a GI50 (UACC-62 melanoma) of under 10 nM and a TGI (UACC-62 melanoma) of 18.7 nM. It also gave a GI50 (NCI-H522 lung) of under 10 nM, a TGI (NCI-H522 lung) of under 10 nM and a GI50 (HCT-15 colon) of 45.1 nM. It also gave a TGI (HCT-15 colon) of 213 nM, a GI50 (OVCAR-3 ovarian) of under 10 nM and a TGI (OVCAR-3 ovarian) of 11 nM. It also gave a GI50 (HOP-62 NSCLC) of 15.8 nM, a TGI (HOP-62 NSCLC) of 47.9 nM and a GI50 (OVCAR-4 ovarian) of under 10 nM. The TGI (OVCAR-4 ovarian) was 25.4 nM, the GI50 (ACHN renal) was 20.5 nM and the TGI (ACHN renal) was 83 nM. For the same compound, the GI50 (NCI/ADR-RES ovarian) was 525 nM, the TGI (NCI/ADR-RES ovarian) was 12200 nM and the GI50 (NCI-H322M lung) was 20.9 nM. For the same compound, the TGI (NCI-H322M lung) was 49.5 nM.
